Measured values: US20160296506A1, “Methods and Compositions for Treating HIV Infection” (priority 2012, published 2016)

Assays:
[1] = tested on: carbamoyl-phosphate synthetase 2, aspartate transcarbamylase, and dihydroorotase (CAD); assay: CAD activity (phosphorylation at S1859) in IL-2/PHA-stimulated CD4 T cells; format: cell-based
Description: (§1) PLD inhibitors modulate intracellular deoxyribonucleotides levels. […] CD4 T-cells experiments were performed with ani-CD3/CD28-currently completing experiments with IL-2/phytohaemagglutinin (PHA)-stimulated CD4 T cells.

THP-1 cells = assay: dNTP levels in THP-1 cells (HPLC-MS); format: cell-based; settings: statement
Description: Briefly, Undifferentiated THP-1 cells (5×10̂6 cells/well) were treated with various inhibitors (10 μM EVJ, 10 μM JWJ, 100 nM rapamycin, 250 nM torin1, or 1 μM Go6976) for 16 h before harvest and extraction for HPLC-MS analysis of dNTP levels. Data represents analysis of triplicate samples.
Briefly, THP-1 cells (2.5×10^5 cells in 0.5 mL of c-RPMI (5×10^5/mL)/well) were seeded into 24-well plates and differentiated with 0.1 μM PMA for 24 h. Cells were then pretreated for 4 h with inhibitors (10 μM EVJ, 10 μM JWJ, 100 nM rapamycin, 250 nM torin1, or 10 μM concentration of two AKT inhibitors for comparison). Cells were then infected with HIV-1-GFP in the continued presence of inhibitors. Levels of infection were determined by flow cytometry (BD Biosciences FACSCalibur) 72 h post-infection. […] This difference is likely due to an increase in PLD1 activity in PMA-treated THP-1 cells.

CAD = assay: dNTP levels with CAD overexpression; format: cell-based; settings: FIG. 13
[2] = PO plasma and brain levels; format: in vivo, mice; settings: dose 10 mg/kg
Description: The pharmacokinetic behavior of a representative disclosed PLD inhibitor of the present invention was assessed following […]. Briefly, mice were administered a single dose of a representative PLD inhibitor, either VUO364739 or VU359595 (10 mg/kg) by either intravenous injection or by oral administration. Plasma samples and tissue samples (brain) were isolated at various time points following euthanizing animal. The samples were flash frozen and stored at −80° C. Analysis was carried out by LC-MS/MS following extraction.

U87MG cells = assay: SILAC proteomic analysis on U87MG cells; format: cell-based; settings: EVJ on U87MG cells, FIG. 12
Description: A SILAC proteomic analysis was conducted using the PLD1-preferring inhibitor EVJ on U87MG cells.

HIV-1 [3] = assay: HIV-1 infection in PMA-stimulated THP-1 cells (flow cytometry); format: cell-based; settings: 10 μM, 4 h pretreatment, HIV-1-GFP, 72 h post-infection, FIG. 10
HIV-1 [4] = assay: HIV-1 replication in activated primary CD4+ T cells; format: cell-based, human; settings: 10 μM, PHA/IL2 activated after EVJ treatment, FIG. 14
HIV-1 [5] = assay: HIV-1 infection of U87.CD4.CXCR4 cells; format: cell-based; settings: data not shown
Plasma protein binding = format: in vitro ADME
IV pharmacokinetics = format: in vivo, mice; settings: dose 1 mg/kg; for half-life / Vd: mouse, plasma; for Vd: read-out: Vdss
primary T-cells = assay: dNTP increases in stimulated primary CD4 T-cells; format: cell-based, human; settings: FIG. 14
Description: as §1

| Structure (SMILES) | activity of CAD, phosphorylation at activation residue S1859 [1] | Deoxyribonucleotide (dNTP) levels (THP-1 cells) | dNTP levels upon CAD over expression (CAD) | Plasma [2] [ng/kg] | HIV-1 replication in THP-1 cells, undifferentiated vs PMA-differentiated (HIV-1 [3]) | HIV-1 infection of U87.CD4.CXCR4 cells (HIV-1 [5]) | Plasma Protein Binding (% bound) (Plasma protein binding) | CI (IV pharmacokinetics) [mL/min/kg] | half-life (IV pharmacokinetics) [min] | Vd (IV pharmacokinetics) [L/kg] | further results |
| --- | --- | --- | --- | --- | --- | --- | --- | --- | --- | --- | --- |
| CCC(=O)N1CCN(c2ccc(-n3c(=O)ccc4cnc5ccc(-c6cnc7ccccc7c6)cc5c43)cc2C(F)(F)F)CC1 [Torin1] | suppress activity | potently reduced | – | – | – | – | – | – | – | – | – |
| CNC(=O)c1cccc(-c2ccc3c(N4CCOC[C@@H]4C)nc(N4CCOC[C@@H]4C)nc3n2)c1 [AZD2014] | suppress activity | – | – | – | – | – | – | – | – | – | – |
| NC(=O)NO [Hydroxyurea] | comparative modest effects | – | – | – | – | – | – | – | – | – | – |
| NC1(c2ccc(-c3nc4ccn5c(=O)[nH]nc5c4cc3-c3ccccc3)cc2)CCC1 [MK2206, reference compound] | – | potently reduced | continues to block dNTP levels | – | – | – | – | – | – | – | – |
| C[C@@H](CN1CCC(n2c(=O)[nH]c3cc(Br)ccc32)CC1)NC(=O)[C@@H]1C[C@@H]1c1ccccc1 [No. 2, (1R,2S)-N-((S)-1-(4-(5-bromo-2-oxo-2,3-dihydro-1H-benzo[d]imidazol-1-yl)piperidin-1-yl)propan-2-yl)-2-phenylcyclopropane carboxamide] | suppress activity | – | partially rescues the dNTP biosynthetic phenotype | 39.9 | more robust effect on HIV-1 replication in PMA-differentiated THP-1 cells | inhibit HIV-1 infection | 97.9 | 61.5 | 91.2 | 8.1 | Brain [2]: 29 ng/kg; Kp ([2]; mouse, brain/plasma): 0.73; signaling pathway changed (network analysis) (U87MG cells): mTORC1 signaling is the predominant signaling pathway changed; HIV-1 replication in activated primary CD4+ T cells (HIV-1 [4]): inhibits HIV-1 replication; dNTP increases in CD4-receptor stimulated primary T-cells from human donors (primary T-cells): blunt dNTP increases |
| O=C(NCCN1CCC2(CC1)C(=O)NCN2c1cccc(F)c1)c1ccc2ccccc2c1 [No. 1, N-(2-(1-(3-fluorophenyl)-4-oxo-1,3,8-triazaspiro [4.5]decan-8-yl)ethyl)-2-naphthamide] | – | – | – | 29 | inhibits HIV-1 replication under both conditions | inhibit HIV-1 infection | 98.1 | 60.7 | 46.8 | 4.7 | Brain (ng/kg) [2]: BLQ; Brain: Plasma [2]: BLQ |
